Reference: patent US4001424A, “1-Oxo-1H-naphtho [2,1-b] pyran derivatives for treating depression” (Carlo Erba S.p.A., priority 1973, dated 1977)

Key:
[1] = tested on: reserpine-induced hypothermia; assay: Anti-reserpine activity: prevention of reserpine-induced hypothermia; format: in vivo, mice; details: Mus musculus, 4 h; oral, 30 min before reserpine 2.5 mg/kg endoperitoneally; rectal temperature four hours after reserpine; dose reducing symptoms by 50% vs control
Text: (§1) 1-oxo-1H-naphtho[2,1-b]pyran derivatives as well as the pharmaceutical compositions containing them, being the object of the present invention, are active on the central nervous system as antidepressive agents. The antidepressive activity of the compounds of the invention, evaluated in mice from the prevention of reserpine-induced blepharospasm and hypothermia, is shown in the following Table, where the antireserpine effect is indicated as ED50 values, that is, doses able to prevent reserpine-induced blepharospasm and hypothermia by reducing symptoms of 50% if compared with the values obtainable in control animals.
(§2) Reserpine was administered endoperitoneally at a dosage of 2.5 mg/kg, and the compounds tested were administered orally 30 minutes before administration of reserpine. Recording of blepharospasm (evaluated in scores according to the technique described by Rubin B. et al in J. Pharmacol. 120, 125, 1957) and measurement of body temperature (by means of a rectal thermocouple […]) were taken an hour, and respectively, four hours after the administration of reserpine. In particular, the compounds object of the present invention not only allow to obtain a lower general toxicity in comparison with standard antidepressive agents, but also a lower cardiac toxicity as well as the lack of peripheral atropine effects.

[2] = tested on: reserpine-induced blepharospasm; assay: Anti-reserpine activity: prevention of reserpine-induced blepharospasm; format: in vivo, mice; details: Mus musculus, 1 h; oral, 30 min before reserpine 2.5 mg/kg endoperitoneally; scored one hour after reserpine; dose reducing symptoms by 50% vs control
Text: as §1, §2

| Structure (SMILES) | ED50 [1] [mg/kg] | ED50 [2] [mg/kg] |
| --- | --- | --- |
| CCN(C)c1cc(=O)c2c(ccc3ccccc32)o1 [1-oxo-3-(N-methyl-N-ethyl)amino-1H-naphtho[2,1-b]pyran] | 15 | 4 |
| CN(C)c1cc(=O)c2c(ccc3ccccc32)o1 [1-oxo-3-dimethylamino-1H-naphtho[2,1-b]pyran] | 21 | 8.7 |
